According to patent publication US20200003756A1, “METHOD FOR OBSERVING SEBACEOUS GLAND” (MANDOM CORPORATION, priority 2017, published 2020):

How the values were obtained:
[1] = tested on: sebaceous-gland-structure A; assay: Degree of sebum production from three-dimensional image analysis of outermost layer (Example 4); assay type: cell-based; settings: 24 hours
Procedure: Linoleic acid and phytic acid as test substances were added to the mixed medium obtained in Preparation Example 1 (test sample A) so that the concentration of linoleic acid was 1×10^−4M and so that the concentration of the test sample was 100 μM, to obtain a test sample E. One milliliter of the test sample A was added to each well of a 24-well plate. Text, the sebaceous-gland-structure A obtained in Preparation Example 6 was cultured in a suspended state in the test sample A contained in each well of the 24-well plate in the presence of 5% by volume carbon dioxide at 37° C. for 24 hours, to contact the sebaceous-gland-structure A with the test sample A (Experiment number 10). In addition, the sebaceous-gland-structure A was contacted with the test sample B (Experiment number 11) or the test sample E (Experiment number 12) in the same manner as in Experiment, number 10 except that in Experiment number 10, the test sample B obtained in Example 1(1) (Experiment number 11) or the test sample E obtained in Example 4(1) (Experiment number 12) was used in place of the test sample A. Each of observation samples of Experiment numbers 10 to 12 was obtained in the same manner as in Preparation Example 7 except that in Preparation Example 7, the cultured sebaceous-gland-structure A obtained in Example 4(2) (Experiment numbers 10 to 12) was used in place of the cultured sebaceous-gland-structure A obtained in Preparation Example 6. The appearance of the sebaceous-gland-structure A contained in the observation sample of each of Experiment numbers 10 to 12 obtained in Example 4(3) was observed under a confocal microscope by using image analysis software (manufactured b Bitplane AG, trade name: Imaris), thereby giving three-dimensional image of the sebaceous-gland-structure A. Next, information of the outermost layer of the sebaceous-gland-structure A was extracted from the data of the resulting three-dimensional image by using image analysis software (manufactured by Bitplane AG, trade name: Imaris). Thereafter, the whole volume of the cells present in the outermost layer was calculated from the extracted information, and thereafter the sebum droplets contained in the outermost layer were counted. Using the whole volume of the cells present in the outermost layer and the number of lipid droplets of the sebum the degree of sebum production was calculated according to Formula (I): [Degree of Sebum production]=[Number of lipid droplets of sebum]/[Whole volume of cells present in outermost layer] (I)

[2] = tested on: sebaceous-gland-structure A; assay: Observation of inside of sebaceous-gland-structure, lipid droplets of sebum in outermost layer / degree of progress of sebum production (Example 2); assay type: cell-based; settings: test sample D, linoleic acid 1×10^−4 M plus test substance 1 μM, 24 hours (Experiment number 9); FIGS. 9 and 10
Procedure: Linoleic acid and linoleic acid receptor antagonist (manufactured by Abeam plc, trade name: GSK-3787) as test substances were added to the mixed medium obtained in Preparation Example 1 so that the concentration of linoleic acid was 1×10^−4 M and so that the concentration of the test substance was 1 μM, to obtain a test sample D.
One milliliter of the test sample A was added to each well of a 24-well plate. Next, the sebaceous-gland-structure A obtained in Preparation Example 6 was cultured in a suspended state in the test sample A in each well of the 24-well plate in the presence of 5% by volume carbon dioxide at 37° C. for 24 hours, to contact the sebaceous-gland-structure A with the test sample A (Experiment number 7). […]
Furthermore, the state of each cell of 40 cells in the outermost layer shown in each figure was evaluated by using the results shown in FIGS. 7 to 9 on the basis of the evaluation criterion described below. […]
Next, the degree of progress of sebum production in the sebaceous gland cell contained in the sebaceous-gland-structure A was evaluated by calculating the mean value of the points in the 40 cells in the outermost layer in FIGS. 7 to 9. […]

| Structure (SMILES) | sebum production-regulating action ([1]; phytic acid 100 μM in presence of linoleic acid 1×10^−4 M, conclusion from FIG. 11) | degree of sebum production (number of lipid droplets of sebum / whole volume of cells present in outermost layer) ([1]; test sample E, linoleic acid 1×10^−4 M plus phytic acid 100 μM, compared with test sample containing linoleic acid, FIG. 11) | lipid droplets of sebum in the outermost layer of the sebaceous-gland-structure A [2] |
| --- | --- | --- | --- |
| O=P(O)(O)O[C@H]1[C@H](OP(=O)(O)O)[C@@H](OP(=O)(O)O)[C@H](OP(=O)(O)O)[C@@H](OP(=O)(O)O)[C@H]1OP(=O)(O)O [phytic acid] | sebum production-inhibiting action | lower |  |
| O=C(NCCS(=O)(=O)c1ccc(C(F)(F)F)cn1)c1ccc(Cl)cc1 [linoleic acid receptor antagonist, GSK-3787] |  |  | no lipid droplet of sebum was found |
